Source: patent publication US7462741B2, “Naphthalene compounds” (Les Laboratoires Servier, priority 2006, dated 2008)

Columns and labels:
MT2 receptor = molecular target: T1, MT2 receptor (Homo sapiens, UniProt P49286); assay: Melatonin MT2 receptor binding study; settings: 2-[125I]-iodomelatonin radioligand, competitive binding in triplicate
T1 sequence (P49286 1-362): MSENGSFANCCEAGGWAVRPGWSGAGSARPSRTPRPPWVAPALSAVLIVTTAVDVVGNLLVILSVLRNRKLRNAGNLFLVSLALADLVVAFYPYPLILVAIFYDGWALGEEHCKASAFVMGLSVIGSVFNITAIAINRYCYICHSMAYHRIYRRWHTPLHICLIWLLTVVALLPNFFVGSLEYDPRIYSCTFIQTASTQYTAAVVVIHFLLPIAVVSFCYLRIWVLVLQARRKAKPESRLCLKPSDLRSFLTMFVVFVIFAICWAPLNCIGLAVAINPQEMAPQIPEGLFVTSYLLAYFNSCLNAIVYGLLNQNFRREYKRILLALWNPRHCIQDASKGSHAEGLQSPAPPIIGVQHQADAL
Experimental: (§1) The MT1 or MT2 receptor binding experiments are carried out using 2-[^125I]-iodomelatonin as reference radioligand. The radioactivity retained is determined using a liquid scintillation counter.
(§2) Competitive binding experiments are then carried out in triplicate using the various test compounds. A range of different concentrations is tested for each compound. The results enable the binding affinities of the compounds tested (Ki) to be determined.

MT1 receptor = MT1 receptor (Homo sapiens, UniProt P48039); assay: Melatonin MT1 receptor binding study; settings: 2-[125I]-iodomelatonin radioligand, competitive binding in triplicate
Experimental: as §1, §2

MT1 receptor, sequence (P48039 whole entry): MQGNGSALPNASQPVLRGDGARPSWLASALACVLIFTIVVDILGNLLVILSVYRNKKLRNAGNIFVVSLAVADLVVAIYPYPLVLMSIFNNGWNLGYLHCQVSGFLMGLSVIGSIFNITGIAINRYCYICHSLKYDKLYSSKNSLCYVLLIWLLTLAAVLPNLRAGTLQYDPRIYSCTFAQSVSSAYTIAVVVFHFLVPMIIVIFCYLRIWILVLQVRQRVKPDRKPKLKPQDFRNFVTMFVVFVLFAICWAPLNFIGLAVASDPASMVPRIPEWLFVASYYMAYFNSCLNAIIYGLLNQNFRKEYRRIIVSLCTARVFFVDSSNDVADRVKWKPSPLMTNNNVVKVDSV

Ki (MT2 receptor): 3.2 nM
Ki (MT1 receptor): 1.4 nM
Compound: CCC(=O)NCC(CO)c1cccc2ccc(OC)cc12 (centres unmarked) [Example 1, N-[3-Hydroxy-2-(7-methoxy-1-naphthyl)propyl]propanamide]
